Source: ChEMBL document CHEMBL6177918, “Generation and capture of naphthoquinonynes: a new frontier in the development of trypanocidal quinones via aryne chemistry” (RSC Med Chem, 2025)

Tested on: Trypanosoma cruzi
Experiment: Trypanocidal activity against Trypanosoma cruzi trypomastigotes incubated for 24 hrs
Type: functional, organism-based

Structure (SMILES) | IC50 [µM]
CCOC(=O)/C=C/c1cccc2c1C(=O)C=CC2=O | 90.5
O=C1C=CC(=O)c2c([Se]c3ccccc3)cccc21 | 14.4
O=C1C=CC(=O)c2c1cccc2-n1cc(-c2ccccc2)nn1 | 86.7
O=C(Cn1ccnc1[N+](=O)[O-])NCc1ccccc1 [BENZNIDAZOLE] | 6.8
O=C1C=CC(=O)c2c(O)cccc21 [JUGLONE] | 105

Tested on: Trypanosoma cruzi
Experiment: Trypanocidal activity against bloodstream Trypanosoma cruzi trypomastigotes incubated for 24 hrs by light microscopy
Type: functional, organism-based

Structure (SMILES) | IC50 [µM]
CC12C=CC(C)(O1)c1cc3c(cc12)C(=O)C=CC3=O | 40
O=C1C=CC(=O)c2cc(N(c3ccccc3)c3ccccc3)ccc21 | 134
Cc1ccc(-c2cc3c(cc2O)C(=O)C=CC3=O)cn1 | 24.2
Cc1ccncc1-c1cc2c(cc1O)C(=O)C=CC2=O | 181
CC(C)=C1C2C=CC1c1cc3c(cc12)C(=O)C=CC3=O | > 800
O=C1C=CC(=O)c2cc3c(cc21)C1C=CC3O1 | 10.1
O=C1C=CC(=O)c2cc(-c3cccc(-c4ccccc4)n3)c(O)cc21 | 30.1
COc1ccc(OC)c2cc(O)ccc12 | 379
CCN(CC)c1ccc2c(c1)C(=O)C=CC2=O | 96.2
O=C1C=CC(=O)c2cc(Nc3cccc4ccccc34)ccc21 | 186
CCN(CC)C(=O)Oc1ccc2c(OC)ccc(OC)c2c1 | > 800
O=C1C=CC(=O)c2cc(N(Cc3ccccc3)Cc3ccccc3)ccc21 | > 400
CC(C)N(c1ccc2c(c1)C(=O)C=CC2=O)C(C)C | 18
C=CCN(CC=C)c1ccc2c(c1)C(=O)C=CC2=O | 111
CCC12C=CC(O1)c1cc3c(cc12)C(=O)C=CC3=O (stereo not drawn) | 48.8
O=C1C=CC(=O)c2cc(OCCCCOc3ccccc3)ccc21 | 362
COc1ccc(OC)c2ccccc12 | > 500
Cc1ccc(Nc2ccc3c(c2)C(=O)C=CC3=O)cc1 | 138
O=C1C=CC(=O)c2cc(-c3cnc4ccccc4c3)c(O)cc21 | 46.6
O=C1C=CC(=O)c2cc(-n3cccn3)ccc21 | 74.4
O=C1C=CC(=O)c2cc(Nc3ccccc3)ccc21 | 39.2
O=C1C=CC(=O)c2cc(N(C3CCCCC3)C3CCCCC3)ccc21 | 54.2
CC(=O)C12C=CC(O1)c1cc3c(cc12)C(=O)C=CC3=O (stereo not drawn) | 64.4
COc1ccc(OC)c2cc([Si](C)(C)C)c(O)cc12 | 69.3
COCC12C=CC(O1)c1cc3c(cc12)C(=O)C=CC3=O (stereo not drawn) | 58.1
O=C1C=CC(=O)c2cc(-c3ccc(-c4ccccc4)nc3)c(O)cc21 | 10.5
CN(c1ccccc1)c1ccc2c(c1)C(=O)C=CC2=O | 29.5
CC(=O)OCC12C=CC(O1)c1cc3c(cc12)C(=O)C=CC3=O (stereo not drawn) | 27.3
N#Cc1ccc(Nc2ccc3c(c2)C(=O)C=CC3=O)cc1 | 94.8
O=C(Cn1ccnc1[N+](=O)[O-])NCc1ccccc1 [BENZNIDAZOLE] | 108

Tested on: not listed separately
Experiment: Solubility of compound
Type: physicochemical

solubility | Structure (SMILES)
Insoluble | O=C1C=CC(=O)c2cc(-c3cccnc3)c(O)cc21
Insoluble | COc1ccc(OC)c2cc([Si](C)(C)C)c(OS(=O)(=O)C(F)(F)C(F)(F)C(F)(F)C(F)(F)F)cc12

Tested on: not listed separately
Experiment: Stability of compound
Type: physicochemical

Stability | Structure (SMILES)
Unstable | C[Si](C)(C)c1cc2c(cc1OS(=O)(=O)C(F)(F)C(F)(F)C(F)(F)C(F)(F)F)C(=O)C=CC2=O
